`CO[C@@]1(NC(=O)CSCC#N)C(=O)N2C(C(=O)O)=C(CSc3nnnn3C)CS[C@@H]21` gave a solubility (mole fraction) (in ethanol, 278.15 K) of 0.000215, a solubility (mole fraction) (in ethanol, 283.15 K) of 0.000282 and a solubility (mole fraction) (in ethanol, 288.15 K) of 0.000369. The solubility (mole fraction) (in ethanol, 293.15 K) was 0.000467, the solubility (mole fraction) (in ethanol, 298.15 K) was 0.000596 and the solubility (mole fraction) (in ethanol, 303.15 K) was 0.000757. It also gave a solubility (mole fraction) (in isopropanol, 278.15 K) of 4.6e-05, a solubility (mole fraction) (in isopropanol, 283.15 K) of 6.16e-05 and a solubility (mole fraction) (in isopropanol, 288.15 K) of 8.19e-05. It also gave a solubility (mole fraction) (in isopropanol, 293.15 K) of 0.000107, a solubility (mole fraction) (in isopropanol, 298.15 K) of 0.000138 and a solubility (mole fraction) (in isopropanol, 303.15 K) of 0.000174. The solubility (mole fraction) (in methanol, 278.15 K) was 0.00154, the solubility (mole fraction) (in methanol, 283.15 K) was 0.00202 and the solubility (mole fraction) (in methanol, 288.15 K) was 0.00264. For the same compound, the solubility (mole fraction) (in methanol, 293.15 K) was 0.00337, the solubility (mole fraction) (in methanol, 298.15 K) was 0.00429 and the solubility (mole fraction) (in methanol, 303.15 K) was 0.00545. It also gave a solubility (mole fraction) (in water, 278.15 K) of 1.57e-05, a solubility (mole fraction) (in water, 283.15 K) of 2.05e-05 and a solubility (mole fraction) (in water, 288.15 K) of 2.65e-05. For the same compound, the solubility (mole fraction) (in water, 293.15 K) was 3.46e-05, the solubility (mole fraction) (in water, 298.15 K) was 4.39e-05 and the solubility (mole fraction) (in water, 303.15 K) was 5.52e-05.

— BigSolDB 2.1
